# Data as given in PubChem BioAssay AID2060609 (Molecular Pharmacology Branch, DTP, NCI, 2025).
# System: 855422-203-R-J1-PDC complex spheroids, viability
# Assay: Anticancer human tumor 855422-203-R-J1-PDC patient-derived bladder carcinoma cell line growth inhibition [CLK]
# Conditions: for IC50: curve of first compound; for viability, T/C: stronger effect = lower value
# Text: A high-throughput screen of multi-cell type tumor spheroids was designed to identify active combinations of […] and targeted small molecules. Complex spheroids include a stromal component modeled by human endothelial cells (HUVEC) and fibroblasts modeled by human mesenchymal stem cells (MSCs). The concentration ranges selected for each drug and investigational agent were based upon clinically achievable concentrations if the clinical Cmax of the agent was known.
# Compounds. The drugs and investigational agents: cirtuvivint (SM08502; NSC835563), CC-671 (NSC850746), vemurafenib (NSC761431), tapotoclax (NSC804041), sotorasib (NSC818433), adagrasib (NSC831453), MRTX-1133 (NSC836407), BAY2416964 (NSC825713), copanlisib (NSC816437), inavolisib (NSC800729), abemaciclib (NSC768073), osimertinib (NSC779217), entinostat (NSC756642), eltanexor (KPT-8602, NSC794443), venetoclax (NSC766270), ceralasertib (NSC777638), bortezomib (NSC756655), olaparib (NSC753686), talazoparib (NSC767125), alisertib (NSC759677), peposertib (NSC802822), gemcitabine (NSC613327), 5-fluorouracil (NSC19893), SN-38 (NSC673596), oxaliplatin (NSC266046), paclitaxel (NSC125973), and doxorubicin (NSC123127), were obtained from the National Cancer Institute (NCI) Developmental Therapeutics Program Chemical Repository. The FDA-approved anticancer drug set is available from the Developmental Therapeutics Program at https://dtp.cancer.gov/organization/dscb/obtaining/available plates.htm. […] The stock solutions were prepared in dimethyl sulfoxide (DMSO, Sigma-Aldrich, St. Louis, MO, cat. D2650), except for the platinum complexes which were prepared in saline (Quality Biological, Gaithersburg, MD, cat. 114-055-101), at 800-fold the tested concentration and stored at -70 degrees C prior to their use. All drugs and investigational agents were tested over a range starting from a high concentration at or near the clinical Cmax and decreasing in half-log increments. If the clinical Cmax for an agent had not been determined, the highest concentration tested was 10 microM.
# Cell Culture. All cells were maintained in an incubator at 37 degrees C and 5% CO2 with 95% humidity. The PDC lines were cultured according to standard operating procedures established by the NCI PDMR. Briefly, all PDCs were thawed and cultured in Matrigel-coated flasks prepared with a working solution of 1X Ham's F-12 nutrient mix, without supplementation (Invitrogen, Waltham, MA, cat. 11765054), 100 U/mL penicillin-streptomycin (Invitrogen, cat. 15140122), and 2.5% Matrigel (Corning Inc., Corning, NY, cat. 354248) for the first three passages. The 947758-054-R-J2-PDC line was cultured in 6B/Colon 1A media, which includes advanced DMEM/F-12 (Thermo Fisher Scientific, cat. 12634028), 10 mM HEPES (Thermo Fisher Scientific, cat. 15630080), 1X GlutaMAX supplement (Thermo Fisher Scientific, cat. 35050061), 0.1 mg/mL primocin (InvivoGen, cat. ant-pm-2), 10% defined fetal bovine serum, heat inactivated (HyClone Laboratories Inc., cat. SH30070.03HI), 1.25 mM N-Acetyl-L-cysteine (Sigma-Aldrich, cat. A9165), 10 mM nicotinamide (Sigma-Aldrich, cat. N0636), 1X B-27 supplement (Thermo Fisher Scientific, cat. 17504044), 1X N-2 supplement (Thermo Fisher Scientific, cat. 17502048), and 10 microM Y-27632 dihydrochloride (Tocris Bioscience, cat. 1254). The 876862-298-R-J1-PDC was cultured in 6E media, which includes all 6B/Colon 1A media components plus 50% L-WRN conditioned media (ATCC, cat. CRL-3276), 50 ng/mL recombinant human EGF recombinant protein (hEGF; Thermo Fisher Scientific, cat. PHG0311), 10 ng/mL recombinant human fibroblast growth factor 10 (hGFG-10; PeproTech, cat. 100-26), 1 ng/mL recombinant human fibroblast growth factor 2 (hFGF-2; PeproTech, cat. 100-18B), and 1 µM prostaglandin E2 (PGE2; Tocris, cat. 2296). The 227483-062-R1-J1-PDC line was cultured in Panc media, containing all 6E components except hFGF-2, with the addition of 500 nM SB-431542 (Selleckchem, cat. S1067) and 10 nM gastrin (Tocris, cat. 3006). […]
# [1] = second compound 0.0316 µM, first compound 0.0316 µM
# [2] = second compound 0.0316 µM, first compound 0.1 µM
# [3] = second compound 0.0316 µM, first compound 0.316 µM
# [4] = second compound 0.0316 µM, first compound 1 µM
# [5] = second compound 0.0316 µM, first compound 3.16 µM
# [6] = second compound 0.0316 µM, first compound 10 µM
# [7] = second compound 0.1 µM, first compound 0.0316 µM
# [8] = second compound 0.1 µM, first compound 0.1 µM
# [9] = second compound 0.1 µM, first compound 0.316 µM
# [10] = second compound 0.1 µM, first compound 1 µM
# [11] = second compound 0.1 µM, first compound 3.16 µM
# [12] = second compound 0.1 µM, first compound 10 µM
# [13] = second compound 0.316 µM, first compound 0.0316 µM
# [14] = second compound 0.316 µM, first compound 0.1 µM
# [15] = second compound 0.316 µM, first compound 0.316 µM
# [16] = second compound 0.316 µM, first compound 1 µM
# [17] = second compound 0.316 µM, first compound 3.16 µM
# [18] = second compound 0.316 µM, first compound 10 µM
# [19] = second compound 1 µM, first compound 0.0316 µM
# [20] = second compound 1 µM, first compound 0.1 µM
# [21] = second compound 1 µM, first compound 0.316 µM
# [22] = second compound 1 µM, first compound 1 µM
# [23] = second compound 1 µM, first compound 3.16 µM
# [24] = second compound 1 µM, first compound 10 µM
# [25] = second compound 3.16 µM, first compound 0.0316 µM
# [26] = second compound 3.16 µM, first compound 0.1 µM
# [27] = second compound 3.16 µM, first compound 0.316 µM
# [28] = second compound 3.16 µM, first compound 1 µM
# [29] = second compound 3.16 µM, first compound 3.16 µM
# [30] = second compound 3.16 µM, first compound 10 µM
# [31] = second compound 10 µM, first compound 0.0316 µM
# [32] = second compound 10 µM, first compound 0.1 µM
# [33] = second compound 10 µM, first compound 0.316 µM
# [34] = second compound 10 µM, first compound 1 µM
# [35] = second compound 10 µM, first compound 3.16 µM
# [36] = second compound 10 µM, first compound 10 µM
# 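Further: spheroids exposed to drugs for seven days before readout.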
# 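Wherever viability, T/C is given: 100% = DMSO vehicle control wells.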
compound,measurement,setting,value
C=C(F)C(=O)N1CCN(c2nc(OCC3CCCN3C)nc3c2CCN(c2cccc4cccc(Cl)c24)C3)CC1CC#N (centres undefined) + CN1CCN(c2cc(C(=O)Nc3cc4cc(-c5cnn(C)c5)ccc4cn3)ccn2)CC1,IC50,second compound 0.0316 µM,2460 nM
same,IC50,second compound 0.1 µM,1980 nM
same,IC50,second compound 0.316 µM,< 31.6 nM
same,IC50,second compound 1 µM,< 31.6 nM
same,IC50,second compound 3.16 µM,< 31.6 nM
same,IC50,second compound 10 µM,< 31.6 nM
same,"viability, T/C",[1],108%
same,"viability, T/C",[2],110%
same,"viability, T/C",[3],122%
same,"viability, T/C",[4],115%
same,"viability, T/C",[5],32%
same,"viability, T/C",[6],0.22%
same,"viability, T/C",[7],89.1%
same,"viability, T/C",[8],86%
same,"viability, T/C",[9],87.3%
same,"viability, T/C",[10],95.1%
same,"viability, T/C",[11],22.8%
same,"viability, T/C",[12],0.8%
same,"viability, T/C",[13],14.2%
same,"viability, T/C",[14],14.4%
same,"viability, T/C",[15],14.8%
same,"viability, T/C",[16],14.6%
same,"viability, T/C",[17],4.45%
same,"viability, T/C",[18],0.07%
same,"viability, T/C",[19],0.29%
same,"viability, T/C",[20],0.34%
same,"viability, T/C",[21],0.28%
same,"viability, T/C",[22],0.26%
same,"viability, T/C",[23],0.12%
same,"viability, T/C",[24],1.08%
same,"viability, T/C",[25],0.68%
same,"viability, T/C",[26],0.91%
same,"viability, T/C",[27],0.57%
same,"viability, T/C",[28],0.77%
same,"viability, T/C",[29],1.08%
same,"viability, T/C",[30],0.11%
same,"viability, T/C",[31],0.54%
same,"viability, T/C",[32],0.51%
same,"viability, T/C",[33],0.41%
same,"viability, T/C",[34],0.42%
same,"viability, T/C",[35],0.61%
same,"viability, T/C",[36],0.22%
CC(CO)NC(=O)c1cc(-c2ccc(Cl)cc2)nn(-c2cnn(C)c2)c1=O (centres undefined) + CN1CCN(c2cc(C(=O)Nc3cc4cc(-c5cnn(C)c5)ccc4cn3)ccn2)CC1,IC50,second compound 0.0316 µM,> 10000 nM
same,IC50,second compound 0.1 µM,> 10000 nM
same,IC50,second compound 0.316 µM,< 31.6 nM
same,IC50,second compound 1 µM,< 31.6 nM
same,IC50,second compound 3.16 µM,< 31.6 nM
same,IC50,second compound 10 µM,< 31.6 nM
same,"viability, T/C",[1],85.4%
same,"viability, T/C",[2],97.9%
same,"viability, T/C",[3],95.9%
same,"viability, T/C",[4],104%
same,"viability, T/C",[5],101%
same,"viability, T/C",[6],90.2%
same,"viability, T/C",[7],72.6%
same,"viability, T/C",[8],83.2%
same,"viability, T/C",[9],77.1%
same,"viability, T/C",[10],93.9%
same,"viability, T/C",[11],90.5%
same,"viability, T/C",[12],69.4%
same,"viability, T/C",[13],8.6%
same,"viability, T/C",[14],12.4%
same,"viability, T/C",[15],11.9%
same,"viability, T/C",[16],12.4%
same,"viability, T/C",[17],13.4%
same,"viability, T/C",[18],9.74%
same,"viability, T/C",[19],0.24%
same,"viability, T/C",[20],0.3%
same,"viability, T/C",[21],0.22%
same,"viability, T/C",[22],0.28%
same,"viability, T/C",[23],0.25%
same,"viability, T/C",[24],0.24%
same,"viability, T/C",[25],2.96%
same,"viability, T/C",[26],0.65%
same,"viability, T/C",[27],0.95%
same,"viability, T/C",[28],0.69%
same,"viability, T/C",[29],1.1%
same,"viability, T/C",[30],0.53%
same,"viability, T/C",[31],0.44%
same,"viability, T/C",[32],0.45%
same,"viability, T/C",[33],0.33%
same,"viability, T/C",[34],1.12%
same,"viability, T/C",[35],1.09%
same,"viability, T/C",[36],0.43%
